Data from patent US20220265629A1, “TREATMENT OF SYSTOLIC DYSFUNCTION AND HEART FAILURE WITH REDUCED EJECTION FRACTION WITH THE COMPOUND (R)-4-(1-((3-(DIFLUOROMETHYL)-1-METHYL-1H-PYRAZOL-4-YL)SULFONYL)-1-FLUOROETHYL)-N-(ISOXAZOL-3-YL)PIPERIDINE-1-CARBOXAMIDE” (MyoKardia, Inc., priority 2019, published 2022).
Where two headings read alike, the source gives them in different places.

Experiment: Single ascending oral dose study in healthy volunteers: plasma pharmacokinetics
Assay type: in vivo, human
Conditions: for Plasma concentration, Mean / concentration at 6 h: 6 Hours Postdose; for concentration at 6 h / concentration at 12 h / concentration at 24 h / concentration at 48 h / concentration at 72 h / AUC(0-t) / AUC(0-inf) / Cmax / half-life / MRT / Tmax / Vd/F: human, plasma, oral; for concentration at 12 h: 12 Hours Postdose; for concentration at 24 h: 24 Hours Postdose; for concentration at 48 h: 48 Hours Postdose; for concentration at 72 h: 72 Hours Postdose
Excerpt: This example describes the first-in-human study of Compound I. Based on its mechanism of action, Compound I may offer a targeted therapy for patients with DCM caused by genetic or nongenetic mechanisms. The study was a randomized, double-blind, placebo-controlled, sequential group, single-ascending (oral) close study in healthy subjects aged 18-55 years. Eight dosing cohorts, each comprising eight healthy subjects, were enrolled. Within each cohort, subjects were randomized 6:2 to Compound I:placebo.
Subjects were resident at the clinical site for up to 5 days and 4 nights, from Day −1 (the day before dosing) to Day 4, and received a single dose of Compound I or placebo on Day 1. ECG telemetry was initiated 1 hour preclose and continued through 48 hours postclose (Day 3). Any subject with a preclose resting HR≥80 beats per minute was considered ineligible and not treated. […] Subjects returned for a safety follow-up visit 7 days (±1 day) after dosing.
All randomized study subjects received either Compound I or matching placebo as a single oral dose after a fasting period of at least 6 hours. Compound I drug substance is a crystalline, free-base, synthetic molecule with a molecular weight of 435.4 g/mol.
Compound I was provided as a powder for oral suspension. Placebo was provided as calcium carbonate powder. Both treatments were closed orally as a suspension. The suspension was made using Ora-Plus® suspending vehicle (Perrigo) and a cherry syrup flavoring vehicle (Humco), mixed 50% to 50%. The suspension was followed by approximately 100 mL water. The suspension was made up within 14 days from the time in which it was closed which was consistent with the stability data on the suspension. The suspension was made up so the volume administered to the subjects who received Compound I was the same at 20 mL.
Each subject received a close according to the cohort in which they were enrolled. Cohorts were enrolled sequentially, with each cohort receiving an escalated dose of Compound I. The closes administered were 3 mg, 10 mg, 25 mg, 50 mg, 100 mg, 175 mg, 350 mg, and 525 mg, respectively.
The concentrations of Compound I in human plasma and urine were quantitated by high performance liquid chromatography with tandem mass spectrometric detection (LC MS/MS) (Biological sample analysis study report Alturas AD17-726). Plasma samples were extracted by protein precipitation with acetonitrile containing internal standard MYK-5654. The calibration curves were linear over concentration range of 0.500 to 1000 ng/mL with a lower limit of quantification (LLOQ) of 0.500 ng/mL.
The PK Population included all subjects who received Compound I. Blood samples were collected for PK assessments. The actual timing of the samples may have been modified and/or up to an additional 2 samples may have been requested by the SRC after review of the data from previous cohorts. It was important that PK sampling occurred as closely as possible to the scheduled time (±10%). Both blood and urine samples were used for PK assessments.
In addition, for subjects who received placebo, a single plasma sample near the predicted tmax of Compound I was evaluated to confirm the lack of circulating Compound I. Plasma concentration data for Compound I was summarized using descriptive statistics, including mean, standard deviation (SD), median, minimum, and maximum values, and percent coefficient of variation. Other PK parameters included (but were not limited to) Cmax, tmax, AUC, t1/2, and MRT. Additionally, the apparent terminal-phase terminal half-life was calculated. The close proportionality of AUC and Cmax was explored.

[1] = 3 mg, 3 mg, read-out: Plasma concentration, Geometric Mean
[2] = 3 mg, 3 mg, read-out: Plasma concentration, Mean
[3] = 3 mg, 3 mg, read-out: Plasma concentration, Median
[4] = 10 mg, 10 mg, read-out: Plasma concentration, Geometric Mean
[5] = 10 mg, 10 mg, read-out: Plasma concentration, Mean
[6] = 10 mg, 10 mg, read-out: Plasma concentration, Median

Cn1cc(S(=O)(=O)[C@@](C)(F)C2CCN(C(=O)Nc3ccon3)CC2)c(C(F)F)n1 [Compound I, (R)-4-(1-((3-(difluoromethyl)-1-methyl-1H-pyrazol-4-yl)sulfonyl)-1-fluoroethyl)-N-(isoxazol-3-yl)piperidine-1-carboxamide]
CL/F, Geometric Mean (3 mg): 4.15 L/h | CL/F, Mean (3 mg): 4.26 L/h | CL/F, Median (3 mg): 4.22 L/h | Extrapolation, Geometric Mean (3 mg): 2.71% | Extrapolation, Mean (3 mg): 2.78% | Extrapolation, Median (3 mg): 2.82% | CL/F, Geometric Mean (10 mg): 2.99 L/h | CL/F, Mean (10 mg): 3.06 L/h | CL/F, Median (10 mg): 2.88 L/h | Extrapolation, Geometric Mean (10 mg): 1.59% | Extrapolation, Mean (10 mg): 1.90% | Extrapolation, Median (10 mg): 2.24% | CL/F, Geometric Mean (25 mg): 3.55 L/h | CL/F, Mean (25 mg): 3.69 L/h | CL/F, Median (25 mg): 3.32 L/h | Extrapolation, Geometric Mean (25 mg): 1.45% | Extrapolation, Mean (25 mg): 1.72% | Extrapolation, Median (25 mg): 1.92% | CL/F, Geometric Mean (50 mg): 4.47 L/h | CL/F, Mean (50 mg): 4.53 L/h | CL/F, Median (50 mg): 4.46 L/h | Extrapolation, Geometric Mean (50 mg): 0.46% | Extrapolation, Mean (50 mg): 0.91% | Extrapolation, Median (50 mg): 0.46% | CL/F, Geometric Mean (100 mg): 4.69 L/h | CL/F, Mean (100 mg): 4.76 L/h | CL/F, Median (100 mg): 5.33 L/h | Extrapolation, Geometric Mean (100 mg): 0.36% | Extrapolation, Mean (100 mg): 5.48% | Extrapolation, Median (100 mg): 0.14% | CL/F, Geometric Mean (175 mg): 4.57 L/h | CL/F, Mean (175 mg): 4.66 L/h | CL/F, Median (175 mg): 4.45 L/h | Extrapolation, Geometric Mean (175 mg): 0.14% | Extrapolation, Mean (175 mg): 0.17% | Extrapolation, Median (175 mg): 0.16% | CL/F, Geometric Mean (350 mg): 4.75 L/h | CL/F, Mean (350 mg): 4.95 L/h | CL/F, Median (350 mg): 4.75 L/h | Extrapolation, Geometric Mean (350 mg): 0.37% | Extrapolation, Mean (350 mg): 0.60% | Extrapolation, Median (350 mg): 0.43% | AUC0-∞, Mean (350 mg + 525 mg): 74358.88 ng·h/mL | CL/F, Geometric Mean (350 mg + 525 mg): 6.04 L/h | CL/F, Mean (350 mg + 525 mg): 6.51 L/h | CL/F, Median (350 mg + 525 mg): 6.10 L/h | Extrapolation, Geometric Mean (350 mg + 525 mg): 0.29% | Extrapolation, Mean (350 mg + 525 mg): 0.59% | Extrapolation, Median (350 mg + 525 mg): 0.32% | Tmax, Mean (350 mg + 525 mg): 4.96 h | CL/F, Geometric Mean (525 mg): 7.66 L/h | CL/F, Mean (525 mg): 8.07 L/h | CL/F, Median (525 mg): 7.64 L/h | Extrapolation, Geometric Mean (525 mg): 0.22% | Extrapolation, Mean (525 mg): 0.59% | Extrapolation, Median (525 mg): 0.23% | Plasma concentration, Mean (350 mg): 2660.000 ng/mL | Plasma concentration, Mean (350 mg + 525 mg): 2437.500 ng/mL | Plasma concentration, Mean (525 mg): 2215.000 ng/mL | dose proportionality, power model slope (all dose groups, 95% CI 0.8358-0.9417): 0.8888 | concentration at 6 h [1]: 35.2 ng/mL | concentration at 6 h [2]: 35.8 ng/mL | concentration at 6 h [3]: 33.5 ng/mL | concentration at 12 h [1]: 21.5 ng/mL | concentration at 12 h [2]: 21.9 ng/mL | concentration at 12 h [3]: 21.7 ng/mL | concentration at 24 h [1]: 11 ng/mL | concentration at 24 h [2]: 11.3 ng/mL | concentration at 24 h [3]: 10.8 ng/mL | concentration at 48 h [1]: 2.29 ng/mL | concentration at 48 h [2]: 2.7 ng/mL | concentration at 48 h [3]: 2.34 ng/mL | concentration at 72 h [2]: 0.586 ng/mL | concentration at 72 h [3]: 0.449 ng/mL | AUC(0-t) (3 mg, read-out: AUC0-24, Geometric Mean): 514 ng·h/mL | AUC(0-t) (3 mg, read-out: AUC0-24, Mean): 521 ng·h/mL | AUC(0-t) (3 mg, read-out: AUC0-24, Median): 504 ng·h/mL | AUC(0-t) (3 mg, read-out: AUC0-48, Geometric Mean): 676 ng·h/mL | AUC(0-t) (3 mg, read-out: AUC0-48, Mean): 689 ng·h/mL | AUC(0-t) (3 mg, read-out: AUC0-48, Median): 678 ng·h/mL | AUC(0-t) (3 mg, read-out: AUC0-last, Geometric Mean): 702 ng·h/mL | AUC(0-t) (3 mg, read-out: AUC0-last, Mean): 721 ng·h/mL | AUC(0-t) (3 mg, read-out: AUC0-last, Median): 713 ng·h/mL | AUC(0-inf) (3 mg, read-out: AUC0-∞, Geometric Mean): 722 ng·h/mL | AUC(0-inf) (3 mg, read-out: AUC0-∞, Mean): 741 ng·h/mL | AUC(0-inf) (3 mg, read-out: AUC0-∞, Median): 730 ng·h/mL | Cmax (3 mg, read-out: Cmax, Geometric Mean): 37.6 ng/mL | Cmax (3 mg, read-out: Cmax, Mean): 38.2 ng/mL | Cmax (3 mg, read-out: Cmax, Median): 36.5 ng/mL | half-life (3 mg, read-out: Half-Life Lambda Z, Geometric Mean (converted)): 11.1 h | half-life (3 mg, read-out: Half-Life Lambda Z, Mean (converted)): 11.3 h | half-life (3 mg, read-out: Half-Life Lambda Z, Median (converted)): 11.2 h | MRT (3 mg, read-out: Mean Residence Time, Geometric Mean): 17.3 h | MRT (3 mg, read-out: Mean Residence Time, Mean): 17.5 h | MRT (3 mg, read-out: Mean Residence Time, Median): 16.8 h | Tmax (3 mg, read-out: Tmax, Geometric Mean): 4.33 h | Tmax (3 mg, read-out: Tmax, Mean): 4.46 h | Tmax (3 mg, read-out: Tmax, Median): 4 h | Vd/F (3 mg, read-out: Vz/F, Geometric Mean): 66.5 L | Vd/F (3 mg, read-out: Vz/F, Mean): 66.9 L | Vd/F (3 mg, read-out: Vz/F, Median): 65.4 L | concentration at 6 h [4]: 129 ng/mL | concentration at 6 h [5]: 131 ng/mL | concentration at 6 h [6]: 137 ng/mL | concentration at 12 h [4]: 92.8 ng/mL | concentration at 12 h [5]: 94.2 ng/mL | concentration at 12 h [6]: 97.8 ng/mL | concentration at 24 h [4]: 56.3 ng/mL | concentration at 24 h [5]: 57.8 ng/mL | concentration at 24 h [6]: 61.5 ng/mL | concentration at 48 h [4]: 15.8 ng/mL | concentration at 48 h [5]: 16.4 ng/mL
